According to PubChem BioAssay (NCI):
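Each compound was tested at five concentrations against cells in 96-well plates for 48 hours. Abbreviation: GI50, concentration required for 50% inhibition of growth. TGI denotes the concentration required for complete inhibition of growth.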

Columns and labels:
Assay in all cases: inhibition of tumour cell growth, NCI panel, 48 h
786-0 renal = system: 786-0 renal
A549 NSCLC = system: A549 NSCLC
COLO 205 colon = system: COLO 205 colon
HOP-92 NSCLC = system: HOP-92 NSCLC
HS 578T breast = system: HS 578T breast
SF-295 CNS = system: SF-295 CNS
SK-MEL-5 melanoma = system: SK-MEL-5 melanoma
SN12C renal = system: SN12C renal
SW-620 colon = system: SW-620 colon
T-47D breast = system: T-47D breast

Row | SMILES | TGI (786-0 renal) | TGI (A549 NSCLC) | TGI (COLO 205 colon) | TGI (HOP-92 NSCLC) | TGI (HS 578T breast) | TGI (SF-295 CNS) | TGI (SK-MEL-5 melanoma) | TGI (SN12C renal) | TGI (SW-620 colon) | TGI (T-47D breast) | GI50 (SN12C renal)
1 | COC(=O)C1(Cc2ccc3c(c2)CCC3)Cc2ccc3c(c2C1)CCC3 (stereo unspecified) | 97.6 µM | > 100 µM | 39.2 µM | 98.1 µM | 45 µM | 60.7 µM | 40.2 µM | 56.3 µM | 69.7 µM | 27.1 µM | –
2 | COC(=O)C1=C(C)NC(C)=C(C(=O)OC)C1c1cccc(NO)c1 | 28.3 µM | > 100 µM | 30.3 µM | 23.8 µM | 64.4 µM | 83.1 µM | 29.4 µM | 32.9 µM | 28.5 µM | 55.4 µM | –
3 | Cc1cc2nc(-c3c(F)cccc3F)n(Cc3c(F)cccc3F)c2cc1C | 31.8 µM | 28.1 µM | 30.7 µM | 30 µM | 46.7 µM | 27.9 µM | 26.5 µM | 33.5 µM | 35 µM | 47.2 µM | –
4 | CCOc1cc2c(cc1O)/C(=N/NS(=O)(=O)c1ccc(C)cc1)C[C@@H]1[C@@H]2CC[C@]2(C)[C@@H](O)CC[C@@H]12 | > 100 µM | > 100 µM | 17.4 µM | > 100 µM | > 100 µM | > 100 µM | > 100 µM | > 100 µM | > 100 µM | > 100 µM | 12.1 µM
